The assay relates to RAW264.7 cells. Description: Introduction of SOD1 fusion proteins into RAW264.7 cells. It is filed as cell-based. As to conditions: 0.5 uM, 2 hours. Here is the method:
SOD1, which is widely known as an antioxidant enzyme, was fused with a cell-penetrating peptide, and the cell-penetrating ability and activity maintenance were evaluated using RAW264.7 cells. The recombinant proteins SOD1, SOD1-TAT, and SOD1-RMAD1 were treated at the same concentration of 0.5 uM to RAW264.7 cells for 2 hours.

“SOD1: antioxidant enzyme, recombinant control protein”: the “level of cell penetration” value is “did not penetrate cells”.

The values are drawn from patent US20240207162A1, “CARGO MOLECULE TRANSDUCTION DOMAIN RMAD1, VARIANT THEREOF, RECOMBINANT CARGO MOLECULE, AND METHOD FOR TRANSDUCING CARGO MOLECULE USING SAME” (REMEDI CO., LTD., priority 2021, published 2024).
